Assay results from ChEMBL document CHEMBL2331116, “Microbial transformation of acetyl-11-keto-β-boswellic acid and their inhibitory activity on LPS-induced NO production” (Bioorg Med Chem Lett, 2013).

Experiments:
RAW264.7 = assay: Antiinflammatory activity in mouse RAW264.7 cells assessed as inhibition of LPS-induced NO production after 24 hrs; type: functional, cell-based; conditions: RAW264.7, 24 h
[1] = Cytotoxicity against mouse RAW264.7 cells assessed as cell viability at 100 uM after 24 hrs by MTT assay relative to control; type: cell-based; conditions: read-out: Activity

Structure (SMILES)	IC50 (RAW264.7)	viability at 24 h, 100 µM [1]
CC(=O)O[C@@H]1CC[C@@]2(C)[C@@H](C[C@H](O)[C@]3(C)[C@@H]2C(=O)C=C2[C@@H]4[C@@H](C)[C@H](C)CC[C@]4(C)[C@H](O)C[C@]23C)[C@@]1(C)C(=O)O	10.6 µM	98.1%
CC(=O)O[C@@H]1CC[C@@]2(C)[C@@H](C[C@H](O)[C@]3(C)[C@@H]2C(=O)C=C2[C@@H]4[C@@H](C)[C@H](C)[C@@H](O)C[C@]4(C)CC[C@]23C)[C@@]1(C)C(=O)O	87.7 µM	104%
CC(=O)O[C@@H]1CC[C@@]2(C)[C@@H](C[C@H](O)[C@]3(C)[C@@H]2C(=O)C=C2[C@@H]4[C@@H](C)[C@H](C)CC[C@]4(C)CC[C@]23C)[C@@]1(C)C(=O)O	1.5 µM	84.2%
CN(C)c1ccc(O)c2c1C[C@H]1C[C@H]3[C@H](N(C)C)C(O)=C(C(N)=O)C(=O)[C@@]3(O)C(O)=C1C2=O [MINOCYCLINE]		100%
CC(=O)O[C@@H]1CC[C@@]2(C)[C@@H](CC[C@]3(C)[C@@H]2C(=O)C=C2[C@@H]4[C@@H](C)[C@H](C)CC[C@]4(C)CC[C@]23C)[C@@]1(C)C(=O)O [AKBA]	15.6 µM	81.2%
CC(=O)O[C@@H]1CC[C@@]2(C)[C@@H](C[C@H](O)[C@]3(C)[C@@H]2C(=O)C=C2[C@@H]4[C@@H](C)[C@H](C)CC[C@]4(C)C[C@H](O)[C@]23C)[C@@]1(C)C(=O)O	> 100 µM	108%
CC(=O)O[C@@H]1CC[C@@]2(C)[C@@H](C[C@H](O)[C@]3(C)[C@@H]2C(=O)C=C2[C@@H]4[C@@H](C)[C@H](C)[C@@H](O)C[C@]4(C)C[C@H](O)[C@]23C)[C@@]1(C)C(=O)O	> 100 µM	103%
CC(=O)O[C@@H]1CC[C@@]2(C)[C@@H](C[C@H](O)[C@]3(C)[C@@H]2C(=O)C=C2[C@@H]4[C@@H](C)[C@H](C)C[C@H](O)[C@]4(C)CC[C@]23C)[C@@]1(C)C(=O)O	76.8 µM	89.8%
CC(=O)O[C@@H]1CC[C@@]2(C)[C@@H](CC[C@]3(C)[C@@H]2C(=O)C=C2[C@@H]4[C@@H](C)[C@H](C)[C@@H](O)C[C@]4(C)C[C@H](O)[C@]23C)[C@@]1(C)C(=O)O	> 100 µM	134%
